Where “and” joins values, the source holds several entries; their conditions need not be identical. Equal values may be shown once.

The subject of the assay is urethra/internal sphincter. The assay is described as follows: Urethral perfusion pressure, vesicular pressure and external sphincter EMG in anaesthetised female rats. The class given is in vivo, rat. As for the experimental part:
Female Sprague-Dawley rats (225–350 g) were anaesthetised using urethane. The bladder was exposed through a midline incision into the abdomen and intravesicular pressure was recorded via a catheter inserted into the bladder. A second catheter was inserted into the bladder to allow infusion of saline using a syringe pump when required. A third catheter was inserted into the bladder and wedged into position in the neck of the bladder with the catheter extending into the urethra. This set-up allowed constant infusion of saline into the urethra whilst urethral pressure was recorded. Changes in urethral pressure are assumed to reflect changes in urethral resistance. In each animal, electromyographic (EMG) recordings were made of urethral striated muscle activity by inserting 2 fine copper electrodes either side of the urethral opening.
Once stable, bladder and urethral pressures were recorded, the bladder was inflated by direct infusion of physiological saline into the bladder at a rate of 0.046 ml/min. This rate approximates the maximum hourly diuresis rate. Infusion into the bladder was terminated prior to evoking micturition and the bladder volume maintained. During and after saline infusion, simultaneous recordings were made of urethral perfusion pressure and of external sphincter EMG activity. Once these parameters had stabilised, autonomic drive to the lower urinary tract was inhibited by administration of hexamethonium (10 mg/kg i.v.) and changes to urethral perfusion pressure and external sphincter EMG recorded. Decamethonium (30 mg/kg i.v.) was then added to remove striated muscle activity. In one group of animals, prior to intravesicular infusion of saline a single bolus dose of MCI-225 was administered (3 mg/kg i.v.). In a second group of animals a bolus dose of vehicle was administered. The effect of MCI-225 and vehicle was determined by analysing the changes in urethral perfusion pressure and external sphincter EMG activity during and after infusion and following administration of the ganglion blocker hexamethonium and then finally decamethonium to block the striated muscle activity of the external sphincter.

For the compound `Cc1cc2c(-c3ccccc3F)nc(N3CCNCC3)nc2s1.Cl.O` [MCI-225, 4-(2-Fluorophenyl)-6-methyl-2-(1-piperazinyl)thieno[2,3-D]pyrimidine monohydrate hydrochloride], the “Effect on tone of the urethra/internal sphincter” value (3 mg/kg i.v., anaesthetised female rats) was “increased the tone of the urethra/internal sphincter”. Moreover, the “Decrease in urethral perfusion pressure after decamethonium, from values before hexamethonium” value (3 mg/kg i.v., after hexamethonium 10 mg/kg i.v. then decamethonium 30 mg/kg i.v., vehicle 44±4%) came to 64±7%. Also, under “3 mg/kg i.v., after hexamethonium 10 mg/kg i.v., compared with vehicle-treated animals”, the “Fall in external sphincter activity (EUS-EMG) after hexamethonium” value is recorded as “Larger falls”. For the same compound, for the setting “3 mg/kg i.v., after hexamethonium 10 mg/kg i.v., vehicle 35±7%”, the “Drop in urethral perfusion pressure after hexamethonium” value amounted to 55±5%. In addition, where the note is “3 mg/kg i.v., baseline vs after intravesicular infusion, p=0.04 Students t test, vehicle 29%”, the “Increase in urethral pressure from baseline” value is reported as 77%. For the setting “anaesthetized female rats, after intravesicular saline infusion, 3 mg kg^-1 i.v., n=3”, the “Vesicular pressure (VP) after intravesicular infusion” value is recorded as 8 ± 1 mmHg. The “Urethral perfusion pressure (UP) after intravesicular infusion” value (anaesthetized female rats, after intravesicular saline infusion, 3 mg kg^-1 i.v., n=3, monohydrate hydrochloride) came out at 23±2 mmHg. Where the note is “anaesthetized female rats, baseline before intravesicular infusion, 3 mg kg^-1 i.v., n=3, monohydrate hydrochloride”, the “Baseline urethral perfusion pressure (UP)” value is 13±1 mmHg and 13 ± 2 mmHg.

The record behind these values is patent publication US7220748B2, “Use of 4-(2-Flurophenyl)-6-methyl-2-(1-piperazinyl)thieno(2,3-D)-pyrimidine for treating of urinary incontinence” (Arachnova Therapeutics Ltd., priority 2002, dated 2007).
